Where a SMILES comes first, the peptide text is derived from it. Bridges are numbered along the chain shown (N, C = ends). [ ]: non-standard residue; d: D form. The star is where a group is joined. hPhe(3-Cl-4-CF3) = N[C@@H](CCc1ccc(C(F)(F)F)c(Cl)c1)C(=O)O; NPrPhe(4-CF3) = CCCN[C@@H](Cc1ccc(C(F)(F)F)cc1)C(=O)O; NMeGly(cPent) = CN[C@H](C(=O)O)C1CCCC1; Pro(4,4-Me2) = CC1(C)CN[C@H](C(=O)O)C1; NMeD = CN[C@@H](CC(=O)O)C(=O)O; NMeL = CN[C@@H](CC(C)C)C(=O)O; Morpholide = C1CN(*)CCO1; Ac5c = NC1(C(=O)O)CCCC1; Aze = O=C(O)[C@@H]1CCN1; Sar = CNCC(=O)O
How the values were obtained:
[1] = target: GDP-bound NRAS wild-type protein (Homo sapiens, UniProt P01111); assay: Binding to NRAS by surface plasmon resonance (SPR), KD and KD ratio to KRAS
Sequence of GDP-bound NRAS wild-type protein (P01111 whole entry): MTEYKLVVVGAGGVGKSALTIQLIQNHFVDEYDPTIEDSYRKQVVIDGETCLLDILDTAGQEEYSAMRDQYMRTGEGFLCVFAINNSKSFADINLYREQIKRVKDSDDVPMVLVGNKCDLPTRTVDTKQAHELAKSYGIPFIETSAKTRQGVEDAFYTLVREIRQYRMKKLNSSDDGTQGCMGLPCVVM
Outline: (§1)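 Measured at 30°C: SPR with GDP-loaded, E. coli-expressed biotin-Avi RAS captured (~100–300 RU), ascending 75 s compound injections, HBS pH 7.4 with GDP, MgCl2, 4% DMSO. KD from 1:1 fit.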

[2] = tested on: human lung cancer strain NCI-H441; format: cell-based
Outline: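 Signal came from […] measured per well once the reagent was added. Beforehand, cells were cultured at 37°C and 5% carbon dioxide on a compound series serially diluted in dimethyl sulfoxide.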

HRAS wild-type protein = HRAS wild-type protein (Homo sapiens, UniProt P01112); assay: Binding to HRAS by surface plasmon resonance (SPR), KD and KD ratio to KRAS
Sequence of HRAS wild-type protein (P01112 whole entry): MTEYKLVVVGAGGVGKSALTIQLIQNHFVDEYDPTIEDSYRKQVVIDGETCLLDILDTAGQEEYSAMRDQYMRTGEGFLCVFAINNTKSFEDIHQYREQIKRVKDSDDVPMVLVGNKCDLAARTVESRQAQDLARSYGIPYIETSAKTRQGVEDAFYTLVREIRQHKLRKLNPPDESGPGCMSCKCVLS
Outline: as §1

[3] = target: GDP-bound KRAS wild-type protein (Homo sapiens, UniProt P01116); assay: Binding to KRAS by surface plasmon resonance (SPR), dissociation constant KD
Sequence of GDP-bound KRAS wild-type protein (P01116 1-188 isoform P01116-2): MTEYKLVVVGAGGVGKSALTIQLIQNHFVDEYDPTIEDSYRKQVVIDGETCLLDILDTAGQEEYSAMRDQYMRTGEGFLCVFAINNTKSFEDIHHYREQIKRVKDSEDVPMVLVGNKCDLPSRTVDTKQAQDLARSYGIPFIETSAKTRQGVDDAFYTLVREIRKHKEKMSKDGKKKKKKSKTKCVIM
Outline: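 Running buffer contained 10 µM GDP and 10 mM MgCl2 to keep RAS in the GDP state, with 4% DMSO at pH 7.4. Compounds were flowed at 100 µL/min in 75 s steps of rising concentration over captured biotin-Avi RAS at 30°C. Sensorgrams were fitted 1:1 for KD.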

[4] = ratio of KD for GDP-bound NRAS wild-type protein to KD for KRAS
[5] = ratio of KD for HRAS wild-type protein to KD for KRAS
[6] = ratio of KD value for GDP-bound NRAS wild-type protein to KD value for KRAS (SPR)
[7] = ratio of KD value for HRAS wild-type protein to KD value for KRAS (SPR)
[8] = Single Cycle Kinetics, 1:1 binding model
[9] = ratio of the KD value with respect to GDP-bound NRAS wild-type protein to the KD value with respect to KRAS
[10] = ratio of the KD value with respect to HRAS wild-type protein to the KD value with respect to KRAS

| SMILES | NRAS /KRAS [1, 4] | IC50 [2] | HRAS /KRAS (HRAS wild-type protein; [5]) | Kd ([3]; 1:1 binding model) | NRAS /KRAS [1, 6] | HRAS /KRAS (HRAS wild-type protein; [7]) | Kd [3, 8] | NRAS /KRAS [1, 9] | HRAS /KRAS (HRAS wild-type protein; [10]) | Kd ([3]; Single Cycle Kinetics) |
| --- | --- | --- | --- | --- | --- | --- | --- | --- | --- | --- |
| CCO[C@@H]1C[C@H]2C(=O)NC3(CCC3)C(=O)N(C)[C@@H](C(CC)CC)C(=O)N(C)[C@H](C(=O)N(C)C)CC(=O)N(C)[C@H]3CCCC/C=C/c4ccc(cc4)C[C@@H](C(=O)N(C)CC(=O)N[C@@H](CCc4ccc(Cl)c(Cl)c4)C(=O)N2C1)N1CC/C=C\C[C@@H](C1=O)N(C)C(=O)CN(C1CC1)C(=O)[C@H]([C@@H](C)CC)NC3=O [PP2605] | AA (a compound having 20 or more is denoted as AA) | 8.7 nM | A (a compound having 10 or more and less than 20 is denoted as A) | 0.34 nM | – | – | – | – | – | – |
| CCO[C@@H]1C[C@H]2C(=O)NC3(CCC3)C(=O)N(C)[C@@H](C3CCCC3)C(=O)N(C)[C@H](C(=O)N(CC)CC)CC(=O)N(C)[C@@H](CC(C)C)C(=O)N[C@@H]([C@@H](C)CC)C(=O)N(C)CC(=O)N(C)[C@H]3C/C=C\CCN(C3=O)[C@@H](Cc3ccc(C)cc3)C(=O)N(C)CC(=O)N[C@@H](CCc3ccc(C(F)(F)F)c(OC)c3)C(=O)N2C1 [PP1887] | – | 19.2 nM | – | – | A (a compound having 10 or more and less than 20 is denoted as A) | B (a compound having 3 or more and less than 10 is denoted as B) | 0.3 nM | – | – | – |
| CC[C@H](C)[C@@H]1NC(=O)[C@H](CC(C)C)N(C)C(=O)C[C@@H](C(=O)N2CCOCC2)N(C)C(=O)[C@H](C2CCCC2)N(C)C(=O)C2(CCCC2)NC(=O)[C@@H]2CCCN2C(=O)[C@H](CCc2ccc(C(F)(F)F)c(Cl)c2)NC(=O)CN(C)C(=O)[C@H](Cc2ccc(C)cc2)N2CC=CC[C@@H](C2=O)N(C)C(=O)CN(C)C1=O [PP0460] | – | 5.4 nM | – | – | – | – | 0.14 nM | C (A compound having a KD ratio of 0.1 or more and less than 3 is denoted as C) | C (A compound having a KD ratio of 0.1 or more and less than 3 is denoted as C) | – |
| CCCN1C(=O)CN(C)C(=O)[C@@H]2CCN2C(=O)[C@H]([C@@H](C)CC)NC(=O)[C@H](CC(C)C)N(C)C(=O)C[C@@H](C(=O)N2CCOCC2)N(C)C(=O)[C@H](C2CCCC2)N(C)C(=O)C2(CCCC2)NC(=O)[C@@H]2CC(C)(C)CN2C(=O)[C@H](CCc2ccc(C(F)(F)F)c(Cl)c2)NC(=O)CN(C)C(=O)[C@@H]1Cc1ccc(C(F)(F)F)cc1 [PP0452] ([NMeL]I[Aze][Sar][NPrPhe(4-CF3)][Sar][hPhe(3-Cl-4-CF3)][Pro(4,4-Me2)][Ac5c][NMeGly(cPent)][NMeD]-Morpholide; lactam N-11) | – | 34.1 nM | – | – | – | – | 0.73 nM | B (a compound having 3 or more and less than 10 is denoted as B) | B (a compound having 3 or more and less than 10 is denoted as B) | – |
| CCO[C@@H]1C[C@H]2C(=O)NC3(CC(C)(C)C3)C(=O)N(C)[C@@H](C3CCCC3)C(=O)N(C)[C@H](C(=O)N(C)CC)CC(=O)N(C)[C@@H](CC(C)C)C(=O)N[C@@H]([C@@H](C)CC)C(=O)N(C)CC(=O)N(C)[C@H]3C/C=C\CCN(C3=O)[C@@H](Cc3ccc(C(F)F)cc3)C(=O)N(C)CC(=O)N[C@@H](CCc3cc(C)c(C(F)F)c(F)c3)C(=O)N2C1 [PP3145] | A (a compound having 10 or more and less than 20 is denoted as A) | 29.9 nM | A (a compound having 10 or more and less than 20 is denoted as A) | 0.69 nM | – | – | – | – | – | – |
| CCO[C@@H]1C[C@H]2C(=O)N(C)C3(CC(C)(C)C3)C(=O)N(C)[C@@H](C(CC)CC)C(=O)N(C)[C@H](C(=O)N(C)C)CC(=O)N(C)[C@@H](COC)C(=O)N[C@@H]([C@@H](C)CC)C(=O)N(C)CC(=O)N(C)[C@H]3C/C=C\CCN(C3=O)[C@@H](Cc3ccc(C)cc3)C(=O)N(C)CC(=O)N[C@@H](CCc3ccc(Cl)c(Cl)c3)C(=O)N2C1 [PP2810] | AA (a compound having 20 or more is denoted as AA) | 38.1 nM | A (a compound having 10 or more and less than 20 is denoted as A) | 0.46 nM | – | – | – | – | – | – |
| CCO[C@@H]1C[C@H]2C(=O)NC3(CCC3)C(=O)N(C)[C@@H](C3CCCC3)C(=O)N(C)[C@H](C(=O)N(C)C)CC(=O)N(C)[C@@H](CC(C)C)C(=O)N[C@@H]([C@@H](C)CC)C(=O)N(C)CC(=O)N(C)[C@H]3CC(C)=CCN(C3=O)[C@@H](Cc3ccc(C(F)(F)F)cc3)C(=O)N(C)CC(=O)N[C@@H](CCc3cc(F)c(C(F)(F)F)c(F)c3)C(=O)N2C1 [PP1032] | C (A compound having a KD ratio of 0.1 or more and less than 3 is denoted as C) | 43.9 nM | C (A compound having a KD ratio of 0.1 or more and less than 3 is denoted as C) | – | – | – | – | – | – | 0.38 nM |
| CCO[C@@H]1C[C@H]2C(=O)NC3(CCC3)C(=O)N(C)[C@@H](C3CCCC3)C(=O)N(C)[C@H](C(=O)N(C)C)CC(=O)N(CC)[C@@H](CC(C)C)C(=O)N[C@@H]([C@@H](C)CC)C(=O)N(C)CC(=O)N(C)[C@H]3CC(C)=CCN(C3=O)[C@@H](Cc3ccc(C(F)(F)F)cc3)C(=O)N(C)CC(=O)N[C@@H](CCc3cc(F)c(C(F)(F)F)c(F)c3)C(=O)N2C1 [PP1037] | C (A compound having a KD ratio of 0.1 or more and less than 3 is denoted as C) | 296 nM | C (A compound having a KD ratio of 0.1 or more and less than 3 is denoted as C) | – | – | – | – | – | – | 0.76 nM |
| CCC[C@H]1C(=O)N[C@@H]([C@@H](C)CC)C(=O)N(C)CC(=O)N(C)[C@H]2C/C=C\CCN(C2=O)[C@@H](Cc2ccc(C)cc2)C(=O)N(C)CC(=O)N[C@@H](CCc2ccc(C(F)(F)F)c(OC)c2)C(=O)N2C[C@@H](C)C[C@H]2C(=O)NC2(CCC2)C(=O)N(C)[C@@H](C2CCCC2)C(=O)N(C)[C@H](C(=O)N(C)C)CC(=O)N1C [PP1857] | – | 5 nM | – | – | A (a compound having 10 or more and less than 20 is denoted as A) | B (a compound having 3 or more and less than 10 is denoted as B) | 0.091 nM | – | – | – |
| CCC(CC)[C@H]1C(=O)N(C)[C@H](C(=O)N(C)C)CC(=O)N(C)[C@@H](COC)C(=O)N[C@@H]([C@@H](C)CC)C(=O)N(C)CC(=O)N(C)[C@H]2C/C=C\CCN(C2=O)[C@@H](Cc2ccc(C)cc2)C(=O)N(C)CC(=O)N[C@@H](CCc2ccc(Cl)c(Cl)c2)C(=O)N2CC3(CC3)C[C@H]2C(=O)N(C)C2(CC(C)(C)C2)C(=O)N1C [PP2820] | AA (a compound having 20 or more is denoted as AA) | 62.4 nM | A (a compound having 10 or more and less than 20 is denoted as A) | 0.94 nM | – | – | – | – | – | – |
| CCO[C@@H]1C[C@H]2C(=O)NC3(CC(C)(C)C3)C(=O)N(C)[C@@H](C3CCCC3)C(=O)N(C)[C@H](C(=O)N(C)C)CC(=O)N(C)[C@@H]([C@@H](C)OC)C(=O)N[C@@H]([C@@H](C)CC)C(=O)N3CCC[C@H]3C(=O)N(C)[C@H]3C/C=C\CCN(C3=O)[C@@H](Cc3ccc(C)cc3)C(=O)N(C)CC(=O)N[C@@H](CCc3cc(F)c(C(F)(F)F)c(F)c3)C(=O)N2C1 [PP3214] | A (a compound having 10 or more and less than 20 is denoted as A) | 45.8 nM | A (a compound having 10 or more and less than 20 is denoted as A) | 0.48 nM | – | – | – | – | – | – |
| CCO[C@@H]1C[C@H]2C(=O)NC3(CCC3)C(=O)N(C)[C@@H](C3CCCC3)C(=O)N(C)[C@H](C(=O)N3CCOCC3)CC(=O)N(C)[C@@H](COC3CC3)C(=O)N[C@@H]([C@@H](C)CC)C(=O)N(C)CC(=O)N(C)[C@H]3CCCCCN(C3=O)[C@@H](Cc3ccc(C(F)(F)F)cc3)C(=O)N(C)CC(=O)N[C@@H](CCc3cc(F)c(C(F)(F)F)c(F)c3)C(=O)N2C1 [PP0852] | B (a compound having 3 or more and less than 10 is denoted as B) | 35.3 nM | B (a compound having 3 or more and less than 10 is denoted as B) | – | – | – | – | – | – | 0.46 nM |
| C#CCN1CC(=O)N(C)[C@H]2C/C=C\CCN(C2=O)[C@@H](Cc2ccc(C)cc2)C(=O)N(C)CC(=O)N[C@@H](CCc2ccc(C(F)(F)F)c(OC)c2)C(=O)N2C[C@H](OCC)C[C@H]2C(=O)NC2(CC(C)(C)C2)C(=O)N(C)[C@@H](C2CCCC2)C(=O)N(C)[C@H](C(=O)N(C)C)CC(=O)N(C)[C@@H](CCC)C(=O)N[C@@H]([C@@H](C)CC)C1=O [PP2099] | – | 9.1 nM | – | – | – | – | 0.14 nM | A (a compound having 10 or more and less than 20 is denoted as A) | A (a compound having 10 or more and less than 20 is denoted as A) | – |

— EP4603105A1, “PHARMACEUTICAL COMPOSITION CONTAINING CYCLIC COMPOUND HAVING SELECTIVE KRAS INHIBITORY EFFECT AGAINST HRAS AND NRAS” (CHUGAI SEIYAKU KABUSHIKI KAISHA, priority 2022, dated 2024)
